Holding throughout (test): Antibacterial activity (MIC), agar dilution
Type in all cases: cell-based

One assay deals with Ps. aeruginosa GN3379*. The note with it: Pseudomonas aeruginosa, 20 h; Ps. aeruginosa GN3379, penicillinase-producing; 10^6 cells per ml; read-out: MIC. The source says: (§1) The amount of bacteria inoculated was 10^4 cells per plate (10^6 cells per ml).
(§2) * Penicillinase-producing bacteria

For the next assay, the system named is Kl. pneumoniae Y-4*. The settings on record: Klebsiella pneumoniae, 20 h, Kl. pneumoniae Y-4, penicillinase-producing; 10^6 cells per ml; read-out: MIC.
Description: as §1, §2

The subject of another assay is E. coli TK-3*. The note with it: Escherichia coli, 20 h, E. coli TK-3, penicillinase-producing; 10^6 cells per ml; read-out: MIC.
Description: as §1, §2

The next assay relates to St. aureus F-137*. The note with it: Staphylococcus aureus, 20 h, St. aureus F-137, penicillinase-producing; 10^6 cells per ml; read-out: MIC.
Description: as §1, §2

In the next assay the test system is E. coli TK-111. The settings on record: Escherichia coli, TK111, 20 h, E. coli TK-111; 10^6 cells per ml; 37° C., 20 hours; read-out: MIC.
Description: as §1

Another assay deals with Pro. vulgaris GN3027. The settings on record: Proteus vulgaris, GN3027, 20 h, Pro. vulgaris GN3027; 10^6 cells per ml; 37° C., 20 hours; read-out: MIC.
Description: as §1

Another assay concerns Aci. antitratus A-6. The note with it: 20 h, Aci. antitratus A-6; 10^6 cells per ml; 37° C., 20 hours; read-out: MIC.
Description: as §1

Another assay relates to St. aureus FDA209P. The settings on record: Staphylococcus aureus, FDA209P, 20 h, St. aureus FDA209P; 10^6 cells per ml; 37° C., 20 hours; read-out: MIC.
Description: as §1

The subject of another assay is Pro. morganii T-216. The settings on record: Morganella morganii, 37° C.
Description: as §1

The subject of another assay is Ps. aeruginosa S-68. The settings on record: Pseudomonas aeruginosa, S68; Ps. aeruginosa S-68; 10^6 cells per ml; 37° C., 20 hours; read-out: MIC.
Description: as §1

The next assay has as its system E. coli NIHJ JC-2. The note with it: Escherichia coli, NIHJJC2, 20 h, E. coli NIHJ JC-2; 10^6 cells per ml; 37° C., 20 hours; read-out: MIC.
Description: as §1

A further assay relates to Pro. mirabilis T-111. The settings on record: Proteus mirabilis, T111, 20 h, 10^6 cells per ml, 37° C.
Description: as §1

The subject of another assay is Kl. pneumoniae Y-50. The note with it: Klebsiella pneumoniae, Y50, 20 h, 10^6 cells per ml, 37° C., read-out: MIC.
Description: as §1

A further assay relates to Ps. aeruginosa IFO3445. The settings on record: Pseudomonas aeruginosa; Ps. aeruginosa IFO3445; 10^6 cells per ml; 37° C., 20 hours; read-out: MIC.
Description: as §1

A further assay relates to Ent. cloacae IID977. The note with it: Enterobacter cloacae, IID977, 20 h, Ent. cloacae IID977; 10^6 cells per ml; 37° C., 20 hours; read-out: MIC.
Description: as §1

The test system of a further assay is Kl. pneumoniae Y-41. The note with it: Klebsiella pneumoniae, Y41, 10^6 cells per ml, 37° C., 20 hours, read-out: MIC.
Description: as §1

The test system of a further assay is Pro. vulgaris GN76**. The settings on record: Proteus vulgaris.
Description: as §1
(§3) ** Cephalospolinase-producing bacteria

The subject of a further assay is Ps. aeruginosa GN918**. The settings on record: Pseudomonas aeruginosa, Ps. aeruginosa GN918, cephalospolinase-producing, 10^6 cells per ml.
Description: as §1, §3

The subject of a further assay is E. coli GN5482**. The settings on record: Escherichia coli, 20 h; E. coli GN5482, cephalospolinase-producing; 10^6 cells per ml; read-out: MIC.
Description: as §1, §3

Setting [1] is: T216, 10^6 cells per ml, 20 hours, read-out: MIC.
The mark [2] stands for this setting: 20 h, Pro. vulgaris GN76, cephalospolinase-producing, 10^6 cells per ml, read-out: MIC.

SMILES strings stand for the structures. ≈ marks a conversion by molar mass, not a printed value. Where two headings read alike, the source gives them in different places.

What is called MIC is the least concentration at which growth counts as inhibited. With `CN1CCOc2cc(-c3cc(=O)c(C(=O)O)cn3-c3ccc(O)cc3)ccc21`, the MIC with Ps. aeruginosa GN3379* was 12.5 µg/mL (≈ 33 µM); in the assay with Kl. pneumoniae Y-4*, 3.13 µg/mL (≈ 8.27 µM); in the assay on E. coli TK-3* it was 0.78 µg/mL (≈ 2.06 µM); in the assay with St. aureus F-137*, 0.39 µg/mL (≈ 1.03 µM); in the assay with E. coli TK-111, 0.2 µg/mL (≈ 0.529 µM); with Pro. vulgaris GN3027, 0.39 µg/mL (≈ 1.03 µM). The MIC amounted to 0.78 µg/mL (≈ 2.06 µM) in the assay on Aci. antitratus A-6; 0.39 µg/mL (≈ 1.03 µM) with St. aureus FDA209P; 1.56 µg/mL (≈ 4.12 µM) in the assay with Pro. morganii T-216 (setting [1]); 6.25 µg/mL (≈ 16.5 µM) in the assay on Ps. aeruginosa S-68; 0.39 µg/mL (≈ 1.03 µM) in the assay with E. coli NIHJ JC-2; 3.13 µg/mL (≈ 8.27 µM) in the assay with Pro. mirabilis T-111. Besides, the MIC worked out at 0.78 µg/mL (≈ 2.06 µM) with Kl. pneumoniae Y-50; 12.5 µg/mL (≈ 33 µM) with Ps. aeruginosa IFO3445; 1.56 µg/mL (≈ 4.12 µM) in the assay with Ent. cloacae IID977; 3.13 µg/mL (≈ 8.27 µM) in the assay on Kl. pneumoniae Y-41; 3.13 µg/mL (≈ 8.27 µM) against Pro. vulgaris GN76** (GN76, 20 h); 6.25 µg/mL (≈ 16.5 µM) in the assay with Ps. aeruginosa GN918** (20 h, read-out: MIC). Besides, the MIC in the assay with E. coli GN5482** is no more than 0.05 µg/mL.
Take `CN1CCOc2cc(-c3cc(=O)c(C(=O)O)cn3-c3ccc(O)cc3F)ccc21`: the MIC in the assay on Ps. aeruginosa GN3379* turned out to be 12.5 µg/mL (≈ 31.5 µM); in the assay on Kl. pneumoniae Y-4*, 3.13 µg/mL (≈ 7.9 µM); with E. coli TK-3*, 0.78 µg/mL (≈ 1.97 µM); in the assay on St. aureus F-137* it was 0.2 µg/mL (≈ 0.505 µM); in the assay with E. coli TK-111 it was 0.1 µg/mL (≈ 0.252 µM); with Pro. vulgaris GN3027, 0.39 µg/mL (≈ 0.984 µM). Also, the MIC with Aci. antitratus A-6 is 0.39 µg/mL (≈ 0.984 µM); with St. aureus FDA209P, 0.39 µg/mL (≈ 0.984 µM); in the assay on Pro. morganii T-216 (setting [1]), 1.56 µg/mL (≈ 3.94 µM); in the assay with Ps. aeruginosa S-68, 6.25 µg/mL (≈ 15.8 µM); in the assay on E. coli NIHJ JC-2, 0.39 µg/mL (≈ 0.984 µM); in the assay on Pro. mirabilis T-111, 3.13 µg/mL (≈ 7.9 µM). Further, the MIC in the assay with Kl. pneumoniae Y-50 stood at 0.39 µg/mL (≈ 0.984 µM); in the assay on Ps. aeruginosa IFO3445, 6.25 µg/mL (≈ 15.8 µM); in the assay with Ent. cloacae IID977 it was 0.78 µg/mL (≈ 1.97 µM); in the assay on Kl. pneumoniae Y-41 it was 3.13 µg/mL (≈ 7.9 µM); against Pro. vulgaris GN76** (GN76, 20 h) it was 3.13 µg/mL (≈ 7.9 µM); with Ps. aeruginosa GN918** (GN918, 20 h), 3.13 µg/mL (≈ 7.9 µM). The MIC in the assay on E. coli GN5482** is no more than 0.05 µg/mL.
With `Cc1cc(O)ccc1-n1cc(C(=O)O)c(=O)cc1-c1ccc2c(c1)NCCN2C`, the MIC with Ps. aeruginosa GN3379* was 25 µg/mL (≈ 63.9 µM); with Kl. pneumoniae Y-4*, 6.25 µg/mL (≈ 16 µM); with E. coli TK-3*, 0.78 µg/mL (≈ 1.99 µM); in the assay on St. aureus F-137* it was 0.78 µg/mL (≈ 1.99 µM); with E. coli TK-111, 0.2 µg/mL (≈ 0.511 µM); in the assay with Pro. vulgaris GN3027 it was 0.78 µg/mL (≈ 1.99 µM). In addition, the MIC stood at 1.56 µg/mL (≈ 3.99 µM) in the assay with Aci. antitratus A-6; 0.78 µg/mL (≈ 1.99 µM) with St. aureus FDA209P; 3.13 µg/mL (≈ 8 µM) against Pro. morganii T-216 (T216, 20 h, 10^6 cells per ml); 12.5 µg/mL (≈ 31.9 µM) with Ps. aeruginosa S-68; 0.39 µg/mL (≈ 0.996 µM) in the assay with E. coli NIHJ JC-2; 3.13 µg/mL (≈ 8 µM) in the assay on Pro. mirabilis T-111. For the same compound, the MIC in the assay with Kl. pneumoniae Y-50 was 0.39 µg/mL (≈ 0.996 µM); in the assay on Ps. aeruginosa IFO3445, 25 µg/mL (≈ 63.9 µM); in the assay with Ent. cloacae IID977, 1.56 µg/mL (≈ 3.99 µM); with Kl. pneumoniae Y-41, 3.13 µg/mL (≈ 8 µM); in the assay on Pro. vulgaris GN76** (setting [2]) it was 1.56 µg/mL (≈ 3.99 µM); in the assay on Ps. aeruginosa GN918** (GN918, 20 h) it was 3.13 µg/mL (≈ 8 µM). Further, in the assay on E. coli GN5482**, the MIC worked out at 0.1 µg/mL (≈ 0.255 µM).
Regarding `Cc1cc(O)ccc1-n1cc(C(=O)O)c(=O)cc1C1CC=CCC1` (stereo not shown), the MIC with Ps. aeruginosa GN3379* is 6.25 µg/mL (≈ 19.2 µM); in the assay on Kl. pneumoniae Y-4* it was 1.56 µg/mL (≈ 4.79 µM); in the assay with E. coli TK-3*, 0.78 µg/mL (≈ 2.4 µM); with St. aureus F-137*, 0.1 µg/mL (≈ 0.307 µM); in the assay with E. coli TK-111, 0.1 µg/mL (≈ 0.307 µM); in the assay with Pro. vulgaris GN3027, no more than 0.05 µg/mL. The MIC came out at 0.2 µg/mL (≈ 0.615 µM) in the assay on Aci. antitratus A-6; 0.2 µg/mL (≈ 0.615 µM) with St. aureus FDA209P; 1.56 µg/mL (≈ 4.79 µM) in the assay with Pro. morganii T-216 (T216, 20 h, 10^6 cells per ml); 6.25 µg/mL (≈ 19.2 µM) with Ps. aeruginosa S-68; 0.39 µg/mL (≈ 1.2 µM) with E. coli NIHJ JC-2; 1.56 µg/mL (≈ 4.79 µM) in the assay with Pro. mirabilis T-111. Besides, the minimal inhibitory concentration (MIC) in the assay with Kl. pneumoniae Y-50 was found to be 0.39 µg/mL (≈ 1.2 µM); in the assay on Ps. aeruginosa IFO3445 it was 6.25 µg/mL (≈ 19.2 µM); in the assay on Ent. cloacae IID977, 0.78 µg/mL (≈ 2.4 µM); in the assay on Kl. pneumoniae Y-41, 1.56 µg/mL (≈ 4.79 µM); in the assay on Pro. vulgaris GN76** (setting [2]) it was 0.39 µg/mL (≈ 1.2 µM); with Ps. aeruginosa GN918** (20 h, read-out: MIC), 0.78 µg/mL (≈ 2.4 µM). The MIC in the assay with E. coli GN5482** came to 0.1 µg/mL (≈ 0.307 µM).
